Tests used:
MOLM13 cells = test: Cell cycle study, propidium iodide staining; format: cell-based, human; settings: MOLM13, 1 μM, 24 h
BRD4-BD1 = BRD4-BD1 (Homo sapiens, UniProt O60885); test: BROMOscan; format: binding; settings: 1 uM, control DMSO
PLK kinases (PLK1–3) = test: KINOMEscan; format: binding; settings: 1 uM, control DMSO

Row | SMILES | cell cycle arrest (MOLM13 cells) | BRD4-BD1 % of control (BRD4-BD1) | PLK kinases % of control (PLK kinases (PLK1–3))
1 | C[C@@H]1C(=O)N(C)c2cnc(Nc3ccc(C(=O)NC4CCN(C)CC4)cc3OC3CCCC3)nc2N1C1CCCC1 [Compound 23, (R)-4-((8-cyclopentyl-5,7-dimethyl-6-oxo-5,6,7,8-tetrahydropteridin-2-yl)amino)-3-(cyclopentyloxy)-N-(1-methylpiperidin-4-yl)benzamide] | cell cycle arrest in the G1/G2 stage of the cell cycle |  | 
2 | COc1cc(C(=O)NC2CCN(C)CC2)ccc1Nc1ncc2c(n1)N(C1CCCC1)[C@H](C)C(=O)N2C [Compound 5, (R)-4-((8-cyclopentyl-5,7-dimethyl-6-oxo-5,6,7,8-tetrahydropteridin-2-yl)amino)-3-methoxy-N-(1-methylpiperidin-4-yl)benzamide] |  | 12 % of control | 0.3–0.5 % of control
3 | CC[C@@H]1C(=O)N(C)c2cnc(Nc3ccc(C(=O)NC4CCN(C)CC4)cc3OC)nc2N1C1CCCC1 [BI-2536, reference compound] | G1/G2 arrest |  | 

— publication PMC6309379 (Journal of medicinal chemistry, 2018)
